Reference: patent publication US20230234943A1, “TREX1 INHIBITORS AND USES THEREOF” (Tempest Therapeutics, Inc., priority 2020, published 2023)

Molecular target: T1, Human TREX1 enzyme (amino acids 1-242) (Homo sapiens, UniProt Q9NSU2)
T1 construct: Human TREX1 enzyme (amino acids 1-242)
T1 sequence (Q9NSU2 1-242): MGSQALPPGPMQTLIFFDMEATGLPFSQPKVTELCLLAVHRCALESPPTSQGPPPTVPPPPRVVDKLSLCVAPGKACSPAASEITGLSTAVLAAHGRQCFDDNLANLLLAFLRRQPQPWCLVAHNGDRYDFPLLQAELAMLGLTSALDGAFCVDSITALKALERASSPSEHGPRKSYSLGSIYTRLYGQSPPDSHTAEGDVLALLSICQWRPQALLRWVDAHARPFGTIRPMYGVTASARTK
Assay: Human TREX1 enzymatic assay with dsDNA native oligonucleotide (Picogreen fluorescence)
Type: biochemical
Settings: 2 mM dithiothreitol in assay buffer; 50 nM dsDNA oligonucleotide; 30 min preincubation at 25° C.; read-out: TREX1/Human + DTT IC50 AVG
How it was run: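 Remaining dsDNA quantified by Picogreen fluorescence after EDTA quench, with no-enzyme and DMSO wells as controls. Reactions used 50 nM annealed oligonucleotide for 5–15 min at 25 °C, after a 30 min compound–enzyme preincubation (0.8–0.16 nM TREX1; 2% DMSO; pH 7.7 Tris, 5 mM MgCl2).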

Structure (SMILES)	IC50
COc1cc(-c2nc3ccc(-c4ncno4)cc3n2C2(C)COC2)c(F)c(O)c1O [Example 181, 3-fluoro-6-methoxy-4-[1-(3-methyloxetan-3-yl)-6-(1,2,4-oxadiazol-5-yl)-1H-1,3-benzodiazol-2-yl] benzene-1,2-diol]	≤ 0.1 µM
COc1cc(-c2nc3ccc(-c4ccccn4)cc3n2C2(C)COC2)c(F)c(O)c1O [Example 182, 3-fluoro-6-methoxy-4-[1-(3-methyloxetan-3-yl)-6-(pyridin-2-yl)-1H-1,3-benzodiazol-2-yl]benzene-1,2-diol]	0.1 to 1 µM
COc1cc(-c2nc3ccc(-n4cccn4)cc3n2C2(C)COC2)c(F)c(O)c1O [Example 184, 3-fluoro-6-methoxy-4-[1-(3-methyloxetan-3-yl)-6-(1H-pyrazol-1-yl)-1H-1,3-benzodiazol-2-yl]benzene-1,2-diol]	≤ 0.1 µM
CNCc1ccc2nc(-c3cc(OC)c(O)c(O)c3F)n(C3(C)COC3)c2c1 [Example 186, 3-fluoro-6-methoxy-4-(6-((methylamino)methyl)-1-(3-methyloxetan-3-yl)-1H-benzo[d]imidazol-2-yl)benzene-1,2-diol]	1 to 10 µM
COc1cc(-c2nc3cc(N4CCC4)ccc3n2C2COC2)c(C)c(O)c1O [Example 187, 4-(5-(azetidin-1-yl)-1-(oxetan-3-yl)-1H-benzo[d]imidazol-2-yl)-6-methoxy-3-methylbenzene-1,2-diol]	1 to 10 µM
COc1cc(-c2nc3cc(N4CCC4)ccc3n2C2COC2)c(F)c(O)c1O [Example 188, 4-(5-(azetidin-1-yl)-1-(oxetan-3-yl)-1H-benzo[d]imidazol-2-yl)-3-fluoro-6-methoxybenzene-1,2-diol]	1 to 10 µM
COc1cc(-c2nc3cc(N4CCC4)ccc3[nH]2)c(C)c(O)c1O [Example 189, 4-(5-(azetidin-1-yl)-1H-benzo[d]imidazol-2-yl)-6-methoxy-3-methylbenzene-1,2-diol]	1 to 10 µM
COc1cc(-c2nc3cc(N4CCCC4=O)ccc3n2C2(C)COC2)c(F)c(O)c1O [Example 190, 1-[2-(2-fluoro-3,4-dihydroxy-5-methoxyphenyl)-1-(3-methyloxetan-3-yl)-1H-1,3-benzodiazol-5-yl]pyrrolidin-2-one]	0.1 to 1 µM
COc1cc(-c2nc3cc(N4CCC4)ccc3n2C2CCC2)c(C)c(O)c1O [Example 193]	0.1 to 1 µM
COC(=O)c1cc(-c2nc3cc(N4CCC4)ccc3[nH]2)cc(OC)c1O [Example 196, methyl 5˜(5-(azetidin-1-yl)-1H-benzo[d]imidazol-2-yl)-2-hydroxy-3-methoxybenzoate]	> 100 µM

The remaining lines, values ahead:

IC50	Structure (SMILES)
10 to 100 µM	COc1cc(-c2nc3cc(O)ccc3[nH]2)c(C)c(O)c1O [Example 183, 4-(5-hydroxy-1H-1,3-benzodiazol-2-yl)-6-methoxy-3-methylbenzene-1,2-diol]
1 to 10 µM	COc1cc(-c2nc3ccc(C(C)(C)O)cc3n2C2(C)COC2)c(F)c(O)c1O [Example 185, 3-fluoro-4-[6-(2-hydroxypropan-2-yl)-1-(3-methyloxetan-3-yl)-1H-1,3-benzodiazol-2-yl]-6-methoxybenzene-1,2-diol]
10 to 100 µM	COc1cc(-c2nc3cc(N4CCCC4=O)ccc3n2C2COC2)c(F)c(O)c1O [Example 191, 1-(2-(2-fluoro-3,4-dihydroxy-5-methoxyphenyl)-1-(oxetan-3-yl)-1H-benzo[d]imidazol-5-yl)pyrrolidin-2-one]
≤ 0.1 µM	COc1cc(-c2nc3cc(Nc4ccccc4)ccc3n2C2(C)COC2)c(F)c(O)c1O [Example 192, 3-fluoro-6-methoxy-4-[1-(3-methyloxetan-3-yl)-5-(phenylamino)-1H-1,3-benzodiazol-2-yl]benzene-1,2-diol]
≤ 0.1 µM	COc1cc(-c2nc3ccc(-c4cn[nH]c4)cc3n2C2(C)COC2)c(F)c(O)c1O [Example 194]
0.1 to 1 µM	COc1cc(-c2nc3cc(N(C)C(C)=O)ccc3n2C2(C)COC2)c(F)c(O)c1O [Example 195]
